From patent US4783443A, “Amino acyl cephalosporin derivatives” (The University of Chicago, priority 1986, dated 1988)
≈ marks a conversion by molar mass, not a printed value.

What was measured:
Type in all cases: cell-based
Enterobacter areogenes = assay: Minimum inhibitory concentration (MIC); details: Gram-negative
Description: (§1) The antibacterial effects of compounds of the invention have been assessed by determination of the minimum inhibitory concentration (M.I.C.) value against a variety of Gram-negative and -positive bacteria. The microbial susceptibility data for four compounds, together with those for the antibacterial dipeptide beta-Cl-LAla-beta-Cl-LAla, are given in Table I.
(§2) in uM to facilitate a meaningful comparison of the approximate MICs among
(§3) the tested compounds; an appreciation of the MIC values in ug/mL can be
(§4) obtained by multiplying each value (μM) by 0.55

Enterobacter cloacae = assay: Minimum inhibitory concentration (MIC); details: Gram-negative, read-out: Minimum Inhibitory Concentration
Description: as §1, §2, §3, §4

Escherichia coli CR = assay: Minimum inhibitory concentration (MIC); details: Escherichia coli CR; read-out: Minimum Inhibitory Concentration
Description: as §1, §2, §3, §4

Escherichia coli DB4548 = assay: Minimum inhibitory concentration (MIC)
Description: as §1, §2, §3, §4

Escherichia coli JSR-O = assay: Minimum inhibitory concentration (MIC); details: Escherichia coli JSR-O; parental strain; read-out: Minimum Inhibitory Concentration
Description: as §1, §2, §3, §4

[1] = system: Hemophilus influenzae 236; assay: Minimum inhibitory concentration (MIC); details: Haemophilus influenzae
Description: as §1, §2, §3, §4

[2] = system: Hemophilus influenzae 238; assay: Minimum inhibitory concentration (MIC); details: Haemophilus influenzae
Description: as §1, §2, §3, §4

[3] = system: Hemophilus influenzae 487; assay: Minimum inhibitory concentration (MIC); details: Haemophilus influenzae, possesses a betalactamase
Description: as §1, §2, §3, §4

Klebsiella pneumoniae = assay: Minimum inhibitory concentration (MIC); details: Gram-negative
Description: as §1, §2, §3, §4

Morganella morganii = assay: Minimum inhibitory concentration (MIC); details: Gram-negative
Description: as §1, §2, §3, §4

Psuedomonas aeruginosa = assay: Minimum inhibitory concentration (MIC); details: Gram-negative
Description: as §1, §2, §3, §4

[4] = system: Salmonella typhimurium LT 2; assay: Minimum inhibitory concentration (MIC); details: Salmonella enterica, Gram-negative
Description: as §1, §2, §3, §4

Salmonella typhimurium = assay: Minimum inhibitory concentration (MIC); details: Salmonella enterica, Gram-negative
Description: as §1, §2, §3, §4

Serratia marcescens = assay: Minimum inhibitory concentration (MIC); details: Gram-negative
Description: as §1, §2, §3, §4

Shigella flexneri = assay: Minimum inhibitory concentration (MIC); details: Gram-negative
Description: as §1, §2, §3, §4

[5] = system: Staphylococcus aureus H-2690-8^R; assay: Minimum inhibitory concentration (MIC); details: possesses a betalactamase
Description: as §1, §2, §3, §4

[6] = system: Staphylococcus aureus PSL-13 Pen^R; assay: Minimum inhibitory concentration (MIC); details: possesses a betalactamase
Description: as §1, §2, §3, §4

[7] = system: Staphylococcus aureus PSL-14 Pen^R; assay: Minimum inhibitory concentration (MIC); details: possesses a betalactamase
Description: as §1, §2, §3, §4

[8] = system: Staphylococcus aureus PSL-15 Pen^R; assay: Minimum inhibitory concentration (MIC); details: possesses a betalactamase
Description: as §1, §2, §3, §4

[9] = system: Staphylococcus aureus PSL-16 Pen^R; assay: Minimum inhibitory concentration (MIC); details: possesses a betalactamase
Description: as §1, §2, §3, §4

[10] = system: Staphylococcus aureus T-4624-8 Pen^R; assay: Minimum inhibitory concentration (MIC); details: possesses a betalactamase
Description: as §1, §2, §3, §4

Streptococcus agalactiae = assay: Minimum inhibitory concentration (MIC); details: Gram positive
Description: as §1, §2, §3, §4

Streptococcus faecalis = assay: Minimum inhibitory concentration (MIC); details: Enterococcus faecalis; Streptococcus faecalis; Gram positive; read-out: Minimum Inhibitory Concentration
Description: as §1, §2, §3, §4

[11] = system: Escherichia coli JSR-O Cl-Pep^R; assay: Minimum inhibitory concentration (MIC); details: Escherichia coli, read-out: Minimum Inhibitory Concentration
Description: as §1, §2, §3, §4
^(g) This ia an E. coli JSRO strain selected for resistance to the
A comparison of the data for E. coli strains JSR-O and JSR-O Cl-Pep^R is of special interest. E. coli Cl-Pep^R is an E. coli JSR-O mutant which was selected for resistance to the dipeptide (f). […] Note that the MIC values for (d) and (e) against E. coli Cl-Pep^R (100 and 50 μM, respectively) are quite similar.

[12] = system: Escherichia coli JSR-O pBR322; assay: Minimum inhibitory concentration (MIC); details: read-out: Minimum Inhibitory Concentration
Description: as §1, §2, §3, §4
^(i) Contains the plasmid gene encoding the TEM betalactamase.

Corynebacterium JKM-4754 = assay: Minimum inhibitory concentration (MIC); details: JKM4754; Corynebacterium JKM-4754; resistant to cephalothin; read-out: Minimum Inhibitory Concentration
Description: as §1, §2, §3, §4
(§5) ^(j) Resistant to cephalothin (MIC >200 uM);

Corynebacterium JKR-2285 = assay: Minimum inhibitory concentration (MIC); details: JKR2285; Corynebacterium JKR-2285; resistant to cephalothin; read-out: Minimum Inhibitory Concentration
Description: as §1, §2, §3, §4, §5

Escherichia coli Ceph^R = assay: Minimum inhibitory concentration (MIC); details: Escherichia coli, read-out: Minimum Inhibitory Concentration
Description: as §1, §2, §3, §4, §5

[13] = system: Staphylococcus epidermidis (P^R M^R); assay: Minimum inhibitory concentration (MIC); details: no strain number
Description: as §1, §2, §3, §4
(§6) ^(k) P and M refer to penicillin and methicillin, respectively.

[14] = system: Staphylococcus epidermidis 1239(P^R M^R); assay: Minimum inhibitory concentration (MIC)
Description: as §1, §2, §3, §4, §6

[15] = system: Staphylococcus epidermidis MO1554(P^S M^S); assay: Minimum inhibitory concentration (MIC); details: Staphylococcus epidermidis MO1554 (penicillin- and methicillin-sensitive, P^S M^S)
Description: as §1, §2, §3, §4, §6

[16] = system: Gram-negative and -positive bacteria; assay: Antibacterial activity, general trends of the MIC panel of Table I; details: E. cloacae, all of the susceptible E. coli strains, H. influenzae 487, all of the S. aureus strains
Description: as §1

SMILES | MIC (Enterobacter areogenes) | MIC (Enterobacter cloacae) | MIC (Escherichia coli CR) | MIC (Escherichia coli DB4548) | MIC (Escherichia coli JSR-O) | MIC [1] | MIC [2] | MIC [3] | MIC (Klebsiella pneumoniae) | MIC (Morganella morganii) | MIC (Psuedomonas aeruginosa) | MIC [4] | MIC (Salmonella typhimurium) | MIC (Serratia marcescens) | MIC (Shigella flexneri) | MIC [5] | MIC [6] | MIC [7] | MIC [8] | MIC [9] | other results
C[C@H](N)C(=O)OCC1=C(C(=O)O)N2C(=O)[C@@H](NC(=O)Cc3cccs3)[C@H]2SC1 [(b), 7-beta-(2-thienylacetamido)-3-(L-alanyloxymethyl)-3-cephem-4-carboxylic acid] | > 200 µM | > 200 µM | 100 µM (≈ 42.5 µg/mL) | 50 µM (≈ 21.3 µg/mL) | 100 µM (≈ 42.5 µg/mL) | 50 µM (≈ 21.3 µg/mL) | ≤ 0.78 µM | 50 µM (≈ 21.3 µg/mL) | > 200 µM | 100 µM (≈ 42.5 µg/mL) | > 200 µM | 50 µM (≈ 21.3 µg/mL) | > 200 µM | > 200 µM | 100 µM (≈ 42.5 µg/mL) | 100 µM (≈ 42.5 µg/mL) | 200 µM (≈ 85.1 µg/mL) | > 200 µM | 100 µM (≈ 42.5 µg/mL) | > 200 µM | MIC [10]: 100 µM (≈ 42.5 µg/mL); MIC (Streptococcus agalactiae): ≤ 0.78 µM; MIC (Streptococcus faecalis): > 100 µM; MIC [11]: > 200 µM; MIC [12]: 50 µM (≈ 21.3 µg/mL); MIC (Corynebacterium JKM-4754): > 200 µM; MIC (Corynebacterium JKR-2285): > 200 µM; MIC (Escherichia coli Ceph^R): > 200 µM; MIC [13]: 1.56 µM (≈ 0.664 µg/mL); MIC [14]: ≤ 0.78 µM; MIC [15]: ≤ 0.78 µM; sensitivity observed [16]: no activity was seen
N[C@@H](CCl)C(=O)OCC1=C(C(=O)O)N2C(=O)[C@@H](NC(=O)Cc3cccs3)[C@H]2SC1 [(c), 7-beta-(2-thienylacetamido)-3(beta-chloro-L-alanyloxymethyl)-3-cephem-4-carboxylic acid] | > 200 µM | 100 µM (≈ 46 µg/mL) | 50 µM (≈ 23 µg/mL) | 50 µM (≈ 23 µg/mL) | 100 µM (≈ 46 µg/mL) | 25 µM (≈ 11.5 µg/mL) | ≤ 0.78 µM | 25 µM (≈ 11.5 µg/mL) | > 200 µM | 100 µM (≈ 46 µg/mL) | > 200 µM | 25 µM (≈ 11.5 µg/mL) | 100 µM (≈ 46 µg/mL) | > 200 µM | 100 µM (≈ 46 µg/mL) | 6.25 µM (≈ 2.87 µg/mL) | 25 µM (≈ 11.5 µg/mL) | 25 µM (≈ 11.5 µg/mL) | 12.5 µM (≈ 5.75 µg/mL) | 255 µM (≈ 117 µg/mL) | MIC [10]: 6.25 µM (≈ 2.87 µg/mL); MIC (Streptococcus agalactiae): ≤ 0.78 µM; MIC (Streptococcus faecalis): 200 µM (≈ 92 µg/mL); MIC [11]: > 200 µM; MIC (Corynebacterium JKM-4754): > 200 µM; MIC (Corynebacterium JKR-2285): > 200 µM; MIC (Escherichia coli Ceph^R): > 200 µM; MIC [13]: ≤ 0.78 µM; MIC [14]: ≤ 0.78 µM; MIC [15]: ≤ 0.78 µM; sensitivity observed [16]: sensitivity was observed
